Tests used:
[1] = molecular target: T1, DOXP reductoisomerase from Helicobacter pylori (Helicobacter pylori, UniProt P56139); test: DOXP reductoisomerase inhibition (NADPH oxidation at 365 nm); assay type: biochemical; conditions: recombinant enzyme; 0.3 mM NADPH, 1 mM DOXP, pH 7.5; read-out: IC50 (nM) of DOXP reductoisomerase from Helicobacter pylori
T1 construct: made in house; host or cells: Helicobacter pylori (so in the source)
T1 sequence (P56139 1-368): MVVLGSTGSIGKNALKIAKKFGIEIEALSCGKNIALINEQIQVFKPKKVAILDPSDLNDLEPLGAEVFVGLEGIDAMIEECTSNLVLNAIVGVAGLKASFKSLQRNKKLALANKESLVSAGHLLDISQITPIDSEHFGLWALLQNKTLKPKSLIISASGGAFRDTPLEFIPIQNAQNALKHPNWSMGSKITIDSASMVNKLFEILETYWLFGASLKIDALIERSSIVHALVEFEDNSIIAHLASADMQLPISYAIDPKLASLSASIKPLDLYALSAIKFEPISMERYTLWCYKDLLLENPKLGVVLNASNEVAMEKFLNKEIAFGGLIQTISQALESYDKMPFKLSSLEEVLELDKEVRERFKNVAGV
Procedure: The DOXP reductoisomerase of Helicobacter pylori was expressed as a recombinant protein in Helicobacter pylori. The activity of DOXP reductoisomerase was determined in a batch containing 100 mM tris-HCl (pH=7.5), 1 mM MnCl2, 0.3 mM NADPH and 1 mM DOXP.
The oxidation of NADPH was here measured at 365 nm in a spectrophotometer. The inhibition studies were performed by measuring the activity of DOXP reductoisomerase in the presence of compounds 1 to 8 (see page 5) at various concentrations between 0. 1 and 100 μmol l^−1.

Plasmodium falciparum = test: Antimalarial activity, in vitro culture, [3H]-hypoxanthine incorporation; assay type: cell-based; conditions: 72 h, asynchronous culture, 48 h + 24 h with [3H]-hypoxanthine, read-out: IC50 (nM) of malaria culture (Plasmodium falciparum)
Procedure: The antimalarial activity of substances 1 to 8 (see page 5) was determined using in vitro cultures of the causative organism of malaria, Plasmodium falciparum. 200 μl of an asynchronous Plasmodium falciparum culture with a 0.4% blood parasite content and a heamatocrit of 2% were loaded into each of the wells of a 96 well microtitre plate. A serial dilution series of the compounds was then prepared in steps of three between concentrations of 100 and 0.14 μmol l^−1. The plates were incubated at 37° C., 3% CO2 and 5% O2 over a period of 48 hours. 30 μl of medium supplemented with 27 μCi ml^−1 of [^3H]-hypoxanthine were then added to each well. After 24 hours' incubation, the parasites were harvested by filtration through glass fibre filters and the incorporated radioactivity was measured. Inhibition of parasite growth was measured as the percentage inhibition of tritium incorporation. Inhibition of parasite growth was expressed as the percentage inhibition of tritium incorporation relative to a comparison without the substance. The median inhibitory concentration (IC50) of the substance was determined by extrapolating the values.

Echinochloa = test: Herbicidal activity, water, pre-emergence; assay type: in vivo; conditions: Water, 4000 gram/hectare, read-out: Herbicidal activity, Echinochloa
Procedure: (§1) Herbicidal activity is determined using standard methods.
(§2) Substances 1 to 8 listed on page 5 are again investigated.

Lepidium = test: Herbicidal activity, water, pre-emergence; assay type: in vivo; conditions: Water, 4000 gram/hectare, read-out: Herbicidal activity, Lepidium
Procedure: as §1, §2

Rice = test: Herbicidal activity, water, pre-emergence; assay type: in vivo; conditions: Oryza sativa, Water, 4000 gram/hectare, read-out: Herbicidal activity, Rice
Procedure: as §1, §2

Solanum = test: Herbicidal activity, water, pre-emergence; assay type: in vivo; conditions: Water, 4000 gram/hectare, read-out: Herbicidal activity, Solanum
Procedure: as §1, §2

Abutilon theophrasti [2] = test: Herbicidal activity, soil, pre-emergence; assay type: in vivo; conditions: Soil, pre-emergence, 2000 gram/hectare, read-out: Herbicidal activity, Abutilon theophrasti
Procedure: as §1, §2

Alopecurus myosuroides [3] = test: Herbicidal activity, soil, pre-emergence; assay type: in vivo; conditions: Soil, pre-emergence, 2000 gram/hectare, read-out: Herbicidal activity, Alopecurus myosuroides
Procedure: as §1, §2

Amaranthus retroflexus [4] = test: Herbicidal activity, soil, pre-emergence; assay type: in vivo; conditions: Soil, pre-emergence, 2000 gram/hectare, read-out: Herbicidal activity, Amaranthus retroflexus
Procedure: as §1, §2

Avena fatua [5] = test: Herbicidal activity, soil, pre-emergence; assay type: in vivo; conditions: Soil, pre-emergence, 2000 gram/hectare, read-out: Herbicidal activity, Avena fatua
Procedure: as §1, §2

Beta vulgaris [6] = test: Herbicidal activity, soil, pre-emergence; assay type: in vivo; conditions: Soil, pre-emergence, 2000 gram/hectare, read-out: Herbicidal activity, Beta vulgaris
Procedure: as §1, §2

Cyperus esculentus [7] = test: Herbicidal activity, soil, pre-emergence; assay type: in vivo; conditions: Soil, pre-emergence, 2000 gram/hectare, read-out: Herbicidal activity, Cyperus esculentus
Procedure: as §1, §2

Galium aperine [8] = test: Herbicidal activity, soil, pre-emergence; assay type: in vivo; conditions: Soil, pre-emergence, 2000 gram/hectare, read-out: Herbicidal activity, Galium aperine
Procedure: as §1, §2

Setaria viridis [9] = test: Herbicidal activity, soil, pre-emergence; assay type: in vivo; conditions: Soil, pre-emergence, 2000 gram/hectare, read-out: Herbicidal activity, Setaria viridis
Procedure: as §1, §2

Sinapis arvensis [10] = test: Herbicidal activity, soil, pre-emergence; assay type: in vivo; conditions: Mutarda arvensis; Soil, pre-emergence; 2000 gram/hectare; read-out: Herbicidal activity, Sinapis arvensis
Procedure: as §1, §2

Xanthium strumarium [11] = test: Herbicidal activity, soil, pre-emergence; assay type: in vivo; conditions: Soil, pre-emergence, 2000 gram/hectare, read-out: Herbicidal activity, Xanthium strumarium
Procedure: as §1, §2

Zea mays [12] = test: Herbicidal activity, soil, pre-emergence; assay type: in vivo; conditions: Soil, pre-emergence, 2000 gram/hectare, read-out: Herbicidal activity, Zea mays
Procedure: as §1, §2

Abutilon theophrasti [13] = test: Herbicidal activity, soil, post-emergence; assay type: in vivo; conditions: Soil, post-emergence, 2000 gram/hectare, read-out: Herbicidal activity, Abutilon theophrasti
Procedure: as §1, §2

Alopecurus myosuroides [14] = test: Herbicidal activity, soil, post-emergence; assay type: in vivo; conditions: Soil, post-emergence, 2000 gram/hectare, read-out: Herbicidal activity, Alopecurus myosuroides
Procedure: as §1, §2

Amaranthus retroflexus [15] = test: Herbicidal activity, soil, post-emergence; assay type: in vivo; conditions: Soil, post-emergence, 2000 gram/hectare, read-out: Herbicidal activity, Amaranthus retroflexus
Procedure: as §1, §2

Avena fatua [16] = test: Herbicidal activity, soil, post-emergence; assay type: in vivo; conditions: Soil, post-emergence, 2000 gram/hectare, read-out: Herbicidal activity, Avena fatua
Procedure: as §1, §2

Beta vulgaris [17] = test: Herbicidal activity, soil, post-emergence; assay type: in vivo; conditions: Soil, post-emergence, 2000 gram/hectare, read-out: Herbicidal activity, Beta vulgaris
Procedure: as §1, §2

Cyperus esculentus [18] = test: Herbicidal activity, soil, post-emergence; assay type: in vivo; conditions: Soil, post-emergence, 2000 gram/hectare, read-out: Herbicidal activity, Cyperus esculentus
Procedure: as §1, §2

Galium aperine [19] = test: Herbicidal activity, soil, post-emergence; assay type: in vivo; conditions: Soil, post-emergence, 2000 gram/hectare, read-out: Herbicidal activity, Galium aperine
Procedure: as §1, §2

Setaria viridis [20] = test: Herbicidal activity, soil, post-emergence; assay type: in vivo; conditions: Soil, post-emergence, 2000 gram/hectare, read-out: Herbicidal activity, Setaria viridis
Procedure: as §1, §2

Sinapis arvensis [21] = test: Herbicidal activity, soil, post-emergence; assay type: in vivo; conditions: Mutarda arvensis; Soil, post-emergence; 2000 gram/hectare; read-out: Herbicidal activity, Sinapis arvensis
Procedure: as §1, §2

Xanthium strumarium [22] = test: Herbicidal activity, soil, post-emergence; assay type: in vivo; conditions: Soil, post-emergence, 2000 gram/hectare, read-out: Herbicidal activity, Xanthium strumarium
Procedure: as §1, §2

Zea mays [23] = test: Herbicidal activity, soil, post-emergence; assay type: in vivo; conditions: Soil, post-emergence, 2000 gram/hectare, read-out: Herbicidal activity, Zea mays
Procedure: as §1, §2

`CN(CC(=O)P(C)(C)=O)CN(O)C(=O)C(F)(F)F` [Compound 7, 2-(N-(N-Trifluoracetyl-N-hydroxyaminomethyl)-N-methyl)amino-1-oxoethyldimethylphosphine oxide] gave an IC50 [1] of 300 nM, an IC50 (Plasmodium falciparum) of 1100 nM and a pest or weed control at 4000 g/ha (Echinochloa) of 40%. For the same compound, the pest or weed control at 4000 g/ha (Lepidium) was 40%, the plant injury at 4000 g/ha (Rice) was 30% and the pest or weed control at 4000 g/ha (Solanum) was 30%. For the same compound, the pest or weed control at 2000 g/ha (Abutilon theophrasti [2]) was 0%, the pest or weed control at 2000 g/ha (Alopecurus myosuroides [3]) was 30% and the pest or weed control at 2000 g/ha (Amaranthus retroflexus [4]) was 20%. The pest or weed control at 2000 g/ha (Avena fatua [5]) was 30%, the plant injury at 2000 g/ha (Beta vulgaris [6]) was 70% and the pest or weed control at 2000 g/ha (Cyperus esculentus [7]) was 0%. The pest or weed control at 2000 g/ha (Galium aperine [8]) was 0%, the pest or weed control at 2000 g/ha (Setaria viridis [9]) was 0% and the pest or weed control at 2000 g/ha (Sinapis arvensis [10]) was 30%. The pest or weed control at 2000 g/ha (Xanthium strumarium [11]) was 0%, the plant injury at 2000 g/ha (Zea mays [12]) was 30% and the pest or weed control at 2000 g/ha (Abutilon theophrasti [13]) was 50%. It also gave a pest or weed control at 2000 g/ha (Alopecurus myosuroides [14]) of 80%, a pest or weed control at 2000 g/ha (Amaranthus retroflexus [15]) of 50% and a pest or weed control at 2000 g/ha (Avena fatua [16]) of 80%. The plant injury at 2000 g/ha (Beta vulgaris [17]) was 50%, the pest or weed control at 2000 g/ha (Cyperus esculentus [18]) was 0% and the pest or weed control at 2000 g/ha (Galium aperine [19]) was 70%. For the same compound, the pest or weed control at 2000 g/ha (Setaria viridis [20]) was 90%, the pest or weed control at 2000 g/ha (Sinapis arvensis [21]) was 70% and the pest or weed control at 2000 g/ha (Xanthium strumarium [22]) was 90%. For the same compound, the plant injury at 2000 g/ha (Zea mays [23]) was 70%.

— patent US20030144249A1, “Use of organophosphorous compounds for producing a medicament for treating infections” (priority 2000, published 2003)
